{"source": "paper PMC4980009", "about": "“Epitope Mapping of a Monoclonal Antibody Directed against Neisserial Heparin Binding Antigen Using Next Generation Sequencing of Antigen-Specific Libraries” (PLoS ONE, 2016)", "key": {"mAb 31E10/E7 [1]": {"test_system": "mAb 31E10/E7", "experiment": "Inhibition ELISA of mAb 31E10/E7 binding to NHBA-NUbp-His", "parameters": "species or system murine", "description": "We sought to verify whether the antigenic fragments identified by phage display analysis reacted against the 31E10/E7 mAb in a molecular context other than capsid proteins and how these binding activities compared to that of the whole antigen molecule. For this analysis, FrI and FrII were produced as GST fusion proteins and probed against the 31E10/E7 mAb in an inhibition ELISA assay. A third fragment, FrIII, encompassing residues F324-D391, was also produced in fusion with GST and used as a negative control. In the ELISA inhibition experiments, the NHBA-NUbp-His fusion protein was used as coating antigen and reactivity against 31E10/E7 was measured in the presence and in the absence of GST-FrI, GST-FrII and GST-FrIII.\nThe immunoreactivity of NHBA antigenic fragments against the 31E10/E7 mAb was tested using a previously described ELISA inhibition assay. Briefly, the 31E10/E7 mAb (1 μg/ml) was preincubated with micromolar concentrations of competitors (represented by the indicated NHBA fragments or by the entire antigen fused to an histidine tail) prior to the addition to microtiter wells sensitized with the whole fusion antigen (NHBA-NUbp fused to an histidine tail or NHBA-NUbp-His, 5 μg/ml). […] Percent inhibition was calculated by comparing the absorbance value of wells with and without the inhibitors."}, "mAb 31E10/E7 [2]": {"target": "mAb 31E10/E7", "experiment": "Solution-equilibrium ELISA (Friguet) KD of NHBA fragment–mAb complexes", "assay_type": "binding, murine", "details": "equilibrium in solution, antigen 7 to 480 nM with mAb 0.7 nM, -^§ = No interaction was detected under the tested conditions, read-out: KD ± SD (no interaction detected)", "description": "Next, we sought to directly compare, for their ability to reconstitute the epitope recognized by mAb 31E10/E7, the peptides identified by peptide scanning with the fragments previously identified by PROFILER. To this end, we selected Peptide 5 (Pep-5, spanning P95-E109; Fig 5A) and FrII (D91-A128; Fig 2A) as representatives of the two categories. First, we measured the ability of the fragments to compete with the whole antigen (NHBA-NUbp-His) for binding to mAb 31E10/E7 in the ELISA inhibition assay described above. […] To further analyze this, we measured the affinities of the NHBA fragments for mAb 31E10/E7 using an ELISA assay that can provide reliable estimates of the equilibrium dissociation constant (KD) of antigen-antibody complexes in solution [20].\nKD values of complexes between mAb 31E10/E7 and NHBA fragments at equilibrium in solution were measured using the ELISA test of Friguet et al, exactly as described by Heinrich et al.. […] Under these conditions, absorbance is proportional to the concentration of free mAb 31E10/E7 added to each well. The results for each antigen were analyzed using the plot described by Friguet et al ([19]; S2 Fig), which provides a KD value for the complex in solution. Results were expressed as means and standard deviations of the 4 KD values determined for each of the 4 antigen concentrations used to coat the wells."}}}
{"substance": "TPAS", "values": [{"measurement": "competition with the whole antigen for binding to mAb 31E10/E7", "setting": "mAb 31E10/E7 [1]; NHBA-NUbp-His coated 5 μg/ml, mAb 1 μg/ml, Fig 3B, three independent experiments", "result": "but not the TPAS tetrapeptide"}, {"measurement": "binding to the mAb", "setting": "mAb 31E10/E7 [1]; even at high concentrations (Fig 3B)", "result": "unable to bind the mAb"}, {"measurement": "Kd", "setting": "mAb 31E10/E7 [2]", "result": "> 480", "unit": "nM"}]}
